Publication PMC12598616, “Design and optimization of caspase-1-responsive fluorescent probes for pyroptosis imaging and anti-pyroptosis drug screening” (Chemical Science, 2025)

Tested on: caspase-4
Assay: Selectivity of probes: caspase-4
Format: biochemical, human
Settings: caspase-4 2 U/mL, 37 °C, 2 h, λex 510 nm, λem 585 nm
Excerpt: The resin used for SPPS was purchased from GL Biochem (Shanghai, China). Lipopolysaccharide (LPS, L2630), Nigericin and ATP (11140965001) were purchased from Merck (Shanghai, China) and Invitrogen (Shanghai, China), respectively. Cell culture plates were sourced from Wuxi NEST Biotechnology. Recombinant human caspase-1, caspase-3, caspase-4, and caspase-8 were obtained from Abcam and MCE (Shanghai, China). Anti-cleaved caspase-1 antibody, anti-GAPDH antibody, and goat anti-Rabbit/anti-mouse lgG/HRP were purchased from CST (USA) and Beyotime […]
(Shanghai, China). […]
Medical College (ethical approval number ZJCLA-IACUC-20011003). […]
To investigate the sensitivity of the probes for caspase-1, varying concentration of caspase-1 (0, 0.2, 0.4, 0.6, 0.8, 1.0, 1.25, 1.5, 1.75, 2, 2.5, 3 U/mL) were incubated with FPy1 (5 μM), YPy1 (5 μM) and WPy1 (5 μM) respectively in caspase-1 assay buffer (50 mM HEPES, 50 mM NaCl, 0.1 % chaps, 5 % glycerol, 10 mM DTT, 10 mM EDTA) at 37 °C for 2 hours. Fluorescence spectra were recorded using Hitachi F-2700 spectrophotometer with an excitation at 510 nm (Photomultiplier voltage 700 V; Slit widths ex: 10 nm and em =5.0 nm). […] The limit of detection (LoD) was calculated from 3σ/k, in which σ represents the standard deviation of 15 blank measurements. […]
10 nm and em =5.0 nm). The fluorescence intensity of FPy1, YPy1 and WPy1 at 585 nm were plotted separately against […]

Substance	fluorescence response to caspase-4
–FLTDG– [FPy1, RhoB donor, hNR quencher]	almost no response
–YVADG– [YPy1, caspase-1-responsive FRET probe with recognition peptide –YVADG–; RhoB donor, hNR quencher]	almost no response
